Source: patent US9216968B2, “Heterocyclic derivative and pharmaceutical drug” (NIPPON SHINYAKU CO., LTD., priority 2011, dated 2015)
Counter-ions that a name gives are not always drawn.

Assays:
human mPGES-1 = human mPGES-1 (Homo sapiens (Human), UniProt O14684); experiment: mPGES-1 inhibiting activity (microsome fractions, PGE2 by HTRF); type: biochemical; settings: microsomes from CHO-K1 cells transfected with human mPGES-1; PGH2 1 μM, 4° C., 60 seconds; read-out: mPGES-1 Inhibition IC50
Procedure, shortened: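 PGE2 formation read by HTRF after 60 s at 4 °C with 1 μM PGH2 substrate, following 20 min compound preincubation (1% DMSO) with human mPGES-1 microsomes from transfected CHO-K1 cells. Buffer: potassium phosphate, reduced glutathione, pH 7.4; IC50 from activity relative to enzyme-free blank.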

A549 cells = experiment: Inhibition of PGE2 production in A549 cell (IL-1β stimulated); type: cell-based, human; settings: Homo sapiens, A549, 24 h, IL-1β 5 ng/well, PGE2 in culture medium
Procedure, shortened: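 A549 cells preincubated 60 min with compound in RPMI/3% FBS (final DMSO 0.10), then stimulated with IL-1β (5 ng/well) for 24 h at 37 °C. PGE2 measured by HTRF and PGF2α by EIA in medium; IC50 from inhibition relative to stimulated minus unstimulated production.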

human mPGES-1, sequence (O14684 whole entry): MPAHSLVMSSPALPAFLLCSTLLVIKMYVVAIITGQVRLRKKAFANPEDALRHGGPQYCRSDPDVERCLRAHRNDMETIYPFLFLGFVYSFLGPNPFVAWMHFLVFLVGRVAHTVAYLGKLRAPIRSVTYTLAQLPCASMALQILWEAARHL

| IC50 (human mPGES-1) | IC50 (A549 cells) | SMILES |
| --- | --- | --- |
| 3.6 nM | 20.2 nM | CSc1nc2c(C(=O)Nc3cccc(Cl)c3C)cc(NC(=O)c3ccccc3C(F)(F)F)cc2[nH]1 [Example 179, N-(3-Chloro-2-methylphenyl)-2-(methylsulfanyl)-6-({[2-(trifluoromethyl)phenyl]carbonyl}amino)-1H-benzimidazole-4-carboxamide] |
| 1.1 nM | 774 nM | Cc1c(Cl)cccc1NC(=O)c1cc(NC(=O)c2ccccc2C(F)(F)F)cc2[nH]c(S(C)(=O)=O)nc12 [Example 180, N-(3-Chloro-2-methylphenyl)-2-(methylsulfonyl)-6-({[2-(trifluoromethyl)phenyl]carbonyl}amino)-1H-benzimidazole-4-carboxamide] |
| 1.1 nM | 705 nM | Cc1c(Cl)cccc1NC(=O)c1cc(NC(=O)c2ccccc2C(F)(F)F)cc2[nH]c([S+](C)[O-])nc12 (centres unmarked) [Example 181, N-(3-Chloro-2-methylphenyl)-2-(methylsulfinyl)-6-({[2-(trifluoromethyl)phenyl]carbonyl}amino)-1H-benzimidazole-4-carboxamide] |
| 1.6 nM | 38.4 nM | Cc1c(Cl)cccc1NC(=O)c1cc(NC(=O)c2c(F)cccc2Cl)cc2[nH]c(N(C)C)nc12 [Example 182, 6-{[(2-Chloro-6-fluorophenyl)carbonyl]amino}-N-(3-chloro-2-methylphenyl)-2-(dimethylamino)-1H-benzimidazole-4-carboxamide hydrochloride] |
| 1.9 nM | 6.1 nM | Cc1c(Cl)cccc1NC(=O)c1cc(NC(=O)c2c(Cl)cccc2Cl)cc2[nH]c(N(C)C)nc12 [Example 183, N-(3-Chloro-2-methylphenyl)-6-{[(2,6-dichlorophenyl)carbonyl]amino}-2-(dimethylamino)-1H-benzimidazole-4-carboxamide hydrochloride] |
| 1 nM | 138 nM | Cc1c(Cl)cccc1NC(=O)c1cc(NC(=O)c2ccc(Cl)cc2Cl)cc2[nH]c(N(C)C)nc12 [Example 184, N-(3-Chloro-2-methylphenyl)-6-{[(2,4-dichlorophenyl)carbonyl]amino}-2-(dimethylamino)-1H-benzimidazole-4-carboxamide hydrochloride] |
| 4.5 nM | 5.6 nM | Cc1c(Cl)cccc1NC(=O)c1cc(NC(=O)c2cc(Cl)ccc2Cl)cc2[nH]c(N(C)C)nc12 [Example 185, N-(3-Chloro-2-methylphenyl)-6-{[(2,5-dichlorophenyl)carbonyl]amino}-2-(dimethylamino)-1H-benzimidazole-4-carboxamide hydrochloride] |
| 6.1 nM | 13.9 nM | Cc1c(Cl)cccc1NC(=O)c1cc(NC(=O)c2c(F)cccc2Br)cc2[nH]c(N(C)C)nc12 [Example 186, 6-{[(2-Bromo-6-fluorophenyl)carbonyl]amino}-N-(3-chloro-2-methylphenyl)-2-(dimethylamino)-1H-benzimidazole-4-carboxamide hydrochloride] |
| 3.6 nM | 12.7 nM | Cc1c(Cl)cccc1NC(=O)c1cc(NC(=O)c2c(Cl)cccc2Br)cc2[nH]c(N(C)C)nc12 [Example 187, 6-{[(2-Bromo-6-chlorophenyl)carbonyl]amino}-N-(3-chloro-2-methylphenyl)-2-(dimethylamino)-1H-benzimidazole-4-carboxamide hydrochloride] |
| 457 nM | 1020 nM | Cc1c(Cl)cccc1NC(=O)c1cc(NC(=O)c2cc(C#CC3CC3)ccc2Cl)cc2[nH]c(N(C)C)nc12 [Example 188, 6-({[2-Chloro-5-(cyclopropylethynyl)phenyl]carbonyl}amino)-N-(3-chloro-2-methylphenyl)-2-(dimethylamino)-1H-benzimidazole-4-carboxamide hydrochloride] |
| 1.4 nM | 24.5 nM | Cc1c(Cl)cccc1NC(=O)c1cc(NC(=O)c2cc(Cl)ccc2Cl)cc2[nH]c(NCC(C)(C)CO)nc12 [Example 189, N-(3-Chloro-2-methylphenyl)-6-{[(2,5-dichlorophenyl)carbonyl]amino}-2-[(3-hydroxy-2,2-dimethylpropyl)amino]-1H-benzimidazole-4-carboxamide hydrochloride] |
| 0.1 nM | 7 nM | COCC(C)(C)CNc1nc2c(C(=O)Nc3cccc(Cl)c3C)cc(NC(=O)c3cc(Cl)ccc3Cl)cc2[nH]1 [Example 190, N-(3-Chloro-2-methylphenyl)-6-{[(2,5-dichlorophenyl)carbonyl]amino}-2-[(3-methoxy-2,2-dimethylpropyl)amino]-1H-benzimidazole-4-carboxamide hydrochloride] |
| 3.9 nM | 49.5 nM | Cc1c(Cl)cccc1NC(=O)c1cc(NC(=O)c2cc(Cl)ccc2Cl)cc2[nH]c(NCC(C)(C)O)nc12 [Example 191, N-(3-Chloro-2-methylphenyl)-6-{[(2,5-dichlorophenyl)carbonyl]amino}-2-[(2-hydroxy-2-methylpropyl)amino]-1H-benzimidazole-4-carboxamide hydrochloride] |
| 9.9 nM | 18.1 nM | COC(C)(C)CNc1nc2c(C(=O)Nc3cccc(Cl)c3C)cc(NC(=O)c3cc(Cl)ccc3Cl)cc2[nH]1 [Example 192, N-(3-Chloro-2-methylphenyl)-6-{[(2,5-dichlorophenyl)carbonyl]amino}-2-[(2-methoxy-2-methylpropyl)amino]-1H-benzimidazole-4-carboxamide hydrochloride] |
| 0.4 nM | 18.9 nM | Cc1c(Cl)cccc1NC(=O)c1cc(NC(=O)c2cc(Cl)ccc2Cl)cc2[nH]c(NCCOC(C)C)nc12 [Example 193, N-(3-Chloro-2-methylphenyl)-6-{[(2,5-dichlorophenyl)carbonyl]amino}-2-{[2-(propan-2-yloxy)ethyl]amino}-1H-benzimidazole-4-carboxamide hydrochloride] |
| 0.4 nM | 33.8 nM | Cc1c(Cl)cccc1NC(=O)c1cc(NC(=O)c2c(F)cccc2Cl)cc2[nH]c(NCCOC(C)C)nc12 [Example 194, 6-{[(2-Chloro-6-fluorophenyl)carbonyl]amino}-N-(3-chloro-2-methylphenyl)-2-{[2-(propan-2-yloxy)ethyl]amino}-1H-benzimidazole-4-carboxamide hydrochloride] |
| 6.5 nM | 35.9 nM | COCC(C)(C)CNc1nc2c(C(=O)Nc3cccc(Cl)c3C)cc(NC(=O)c3c(F)cccc3Cl)cc2[nH]1 [Example 196, 6-{[(2-Chloro-6-fluorophenyl)carbonyl]amino}-N-(3-chloro-2-methylphenyl)-2-[(3-methoxy-2,2-dimethylpropyl)amino]-1H-benzimidazole-4-carboxamide hydrochloride] |
| 5.2 nM | 34.4 nM | COC(C)(C)CNc1nc2c(C(=O)Nc3cccc(Cl)c3C)cc(NC(=O)c3c(F)cccc3Cl)cc2[nH]1 [Example 197, 6-{[(2-Chloro-6-fluorophenyl)carbonyl]amino}-N-(3-chloro-2-methylphenyl)-2-[(2-methoxy-2-methylpropyl)amino]-1H-benzimidazole-4-carboxamide hydrochloride] |

| SMILES | IC50 (human mPGES-1) | IC50 (A549 cells) |
| --- | --- | --- |
| Cc1c(Cl)cccc1NC(=O)c1cc(NC(=O)c2c(F)cccc2Cl)cc2[nH]c(NCCOC(C)(C)C)nc12 [Example 195, 2-[(2-tert-Butoxyethyl)amino]-6-{[(2-chloro-6-fluorophenyl)carbonyl]amino}-N-(3-chloro-2-methylphenyl)-1H-benzimidazole-4-carboxamide hydrochloride] | 2.3 nM | 17.2 nM |
